Values of other authors as cited in patent publication US20240066097A1 (priority 2022, published 2024).
In brackets after ≈: the same amount, converted by molar mass.

Legend:
[1] = test system: SARS coronaviruses
[2] = test system: SARS coronaviruses; remark: listed apart in the source
[3] = in vivo
[4] = test system: SARS-CoV-1

Molecule | IC50 [1] | further results
O=c1c(O)c(-c2ccc(O)cc2)oc2cc(O)cc(O)c12 [Kaempferol] | 62.50 to 125.00 µg/mL | EC50 level of the flavonol [2]: 10 µg/mL
MBL | – | half life [3]: 72 to 170 h
Oc1cc(O)c2c(c1)O[C@@]1(c3ccc(O)c(O)c3)Oc3cc(O)c4c(c3[C@@H]2[C@H]1O)O[C@H](c1ccc(O)c(O)c1)[C@H](O)[C@H]4c1c(O)cc(O)c2c1O[C@H](c1ccc(O)c(O)c1)[C@H](O)C2 [Cinnamtannin B1] | 28.4 µg/mL (≈ 32.8 µM) | –
O=c1c(O)c(-c2ccc(O)c(O)c2)oc2cc(O)cc(O)c12 [Quercetin] | 7.19 to 60 µg/mL | EC50 level of the flavonol [2]: 60 µg/mL
[Ca+2] [calcium] | – | dietary calcium absorption: up to −50%
O=c1cc(-c2ccc(O)c(O)c2)oc2cc(O)cc(O)c12 [Luteolin] | 5.72 µg/mL (≈ 20 µM) | –
COc1ccc([C@@H]2CC(=O)c3c(O)cc(O)cc3O2)cc1O [Hesperetin] | 2.5 µg/mL (≈ 8.27 µM) | –
O=C(O[C@@H]1Cc2c(O)cc(O)cc2O[C@@H]1c1cc(O)c(O)c(O)c1)c1cc(O)c(O)c(O)c1 [EGCG, epigallocatechin gallate] | 0.389 to 7.56 µg/mL | –
O=c1c(O)c(-c2cc(O)c(O)c(O)c2)oc2cc(O)cc(O)c12 [Myricetin] | 0.86 µg/mL (≈ 2.7 µM) | –
Urtica dioica Agglutinin (UDA) (protein, UniProt P11218 24-372, looked up) Lectin/endochitinase 1: QRCGSQGGGGTCPALWCCSIWGWCGDSEPYCGRTCENKCWSGERSDHRCGAAVGNPPCGQDRCCSVHGWCGGGNDYCSGSKCQYRCSSSVRGPRVALSGNSTANSIGNVVVTEPLFDQMFSHRKDCPSQGFYSYHSFLVAAESFPAFGTIGDVATRKREVAAFLAHISQATSGERSDVENPHAWGLCHINTTTVTENDFCTSSDWPCAAGKKYSPRGPIQLTHNFNYGLAGQAIGEDLIQNPDLVEKDPIISFKTALWFWMSQHDNKPSCHDIVLNANSAANRIPNKGVIGNIISRAFGHDDFAVRSSSIGFYKRYCDMLGVSYGHDLKYWFDNTPSSEFQRIQMRVAA | – | EC50 [4]: 1.3 µg/mL
